Experimental data published in patent publication US7598072B2 (priority 2003, dated 2009).

How the values were obtained:
[1] = system: RCASBP(A)-EGFP (ASLV-A) in 293(TVA950) cells; assay type: cell-based, avian sarcoma and leukosis virus
[2] = system: RCASBP(A)-EGFP (ASLV-A) in 293(TVA800) cells; assay type: cell-based, avian sarcoma and leukosis virus
[3] = 30 mM NH4Cl for 10 hours, added at 20 minutes or later after initiating infection
[4] = 30 mM NH4Cl for 10 hours, added at time of initiating infection or 10 minutes later
[5] = 6 hour block with 30 mM NH4Cl, QPCR
[6] = 6 hour block with 30 mM NH4Cl, flow cytometry
[7] = 15 mM MβCD, 15 minutes, no NH4Cl

Row | Compound | effect upon viral infectivity (QPCR) [1, 3] | effect on infection (QPCR of reverse-transcribed DNA) [1, 4] | viral infection during the period of inhibitor treatment ([1]; 30 mM NH4Cl, 6 hours) | decrease in viral infectivity ([1]; 6 hour 30 mM NH4Cl, irrespective of whether cyclodextrin had been added) | number of viral DNA products after NH4Cl release, relative to untreated cells [1, 5] | efficiency of infection (EGFP-positive cells) relative to untreated cells [1, 6] | infectivity on increasing time of NH4Cl treatment to 12 hours ([1]; 12 hours NH4Cl, data not shown) | effect upon viral infectivity (QPCR) [2, 3] | effect on infection (QPCR of reverse-transcribed DNA) [2, 4] | viral infection during the period of inhibitor treatment ([2]; 30 mM NH4Cl, 6 hours) | level of infection (late viral DNA products) after NH4Cl release, relative to untreated cells [2, 5] | efficiency of infection (EGFP-positive cells) relative to untreated cells [2, 6] | infectivity on increasing time of NH4Cl treatment to 12 hours ([2]; 12 hours NH4Cl, data not shown) | effect of cyclodextrin treatment by itself on viral infectivity [1, 7] | loss of infectivity ([2]; 15 mM MβCD 15 minutes combined with 6 hour 30 mM NH4Cl block at time of initiating infection) | effect of cyclodextrin treatment by itself on viral infectivity [2, 7]
1 | Cl.N [NH4Cl, ammonium chloride] | greatly reduced effect | complete block | completely arrested | approximately 80% | 10% | 20% | further decrease | greatly reduced effect | complete block | completely arrested | approximately 60% | 85% | did not affect |  |  | 
2 | methyl-β-cyclodextrin [MβCD] |  |  |  |  |  |  |  |  |  |  |  |  |  | only a minor effect | 50% | only a minor effect
